Data on one compound can be found in article PMC12544700, “Identification of a Small Secretoneurin Derivative That Inhibits CaMKIIδ Activity” (Journal of Cellular and Molecular Medicine, 2025).

Peptide text beside a SMILES is read from it. * marks the point of attachment. Biotin = O=C1N[C@H]2[C@H](CS[C@H]2CCCCC(=O)*)N1; Ahx = NCCCCCC(=O)O

Experiment [1] concerns CaMKIIδ fragments (aa 1–74, 1–165, 1–282, 1–311, 69–282). Description: ELISA-based binding to CaMKIIδ fragments. Further details: species or system rat. The following applies: biotinylated peptide; fragments coated in wells; relative to Scram; Figure 2B, n = 9–13. As to the method: Recombinant human His‐CaMKIIδ‐T287D and rat His‐CaMKIIδ‐T287D full‐length proteins (T287D mutated to mimic active kinases) and rat His‐CaMKIIδ (1–74), rat His‐CaMKIIδ (1–165), rat His‐CaMKIIδ (1–282), rat His‐CaMKIIδ‐T287D (1–311), and rat His‐CaMKIIδ (69–282) recombinant fragments were generated by Genscript Corp.
A 96‐well microplate was coated with 1 μg/well of rat or human recombinant His‐CaMKIIδ‐T287D or CaMKIIδ fragments (custom made by Genscript) in 1× PBS overnight at 4°C with gentle tilting. Wells were washed with 1× PBS‐t (0.1% Tween‐20) and blocked with 0.5% gelatin (G‐1890 Gelatin type A, Sigma Merck, Darmstadt, Germany) or BSA (805095 30% BSA (Rinderalbumin 30%), Norsk Labex, Høvik, Norway) for 1 h at room temperature (RT), then incubated with 5 μL of biotinylated peptide (1 mM) for 2 h at 37°C with gentle tilting. The wells were then washed five times with 1× PBS‐t. To detect binding, the wells were incubated with a monoclonal anti‐biotin‐HRP conjugated antibody (1:5000 dilution, A‐0185, Sigma) for 30 min at RT. […] The reaction was stopped by adding 2 N HCl (100 μL), and the signal was measured at 450 nm by a plate reader (Hidex Sense Microplate Reader, Åbo, Finland). […]

A further experiment deals with T1, recombinant CaM (Homo sapiens, UniProt P0DP23).
T1 construct: purchased Sigma Merck C4874
Description: Calmodulin pull-down with peptides synthesised on cellulose membrane. Format: binding. The following applies: peptide on cellulose membrane; 1 μg recombinant CaM, 1 mM CaCl2, overnight 4°C; immunoblot; Figure 3B. As to the method:
To test for calmodulin (CaM) binding, recombinant CaM was pulled down after incubation with SN‐db‐short or a peptide representing the CaM binding site in CaMKII ([…], positive control). SN‐db‐short and the CaM‐binding peptide were synthesised in triplicates onto a cellulose membrane by a Multipep automated peptide synthesiser (CEM Corporation, Matthews, NC, USA). The specific spots of the membrane corresponding to SN‐db‐short or the positive control peptide were cut and placed into separate tubes. The membrane pieces were first rehydrated in 100% methanol and subsequently incubated with 1 μg of recombinant CaM (C4874, Sigma Merck) in CaMKII binding buffer supplemented with CaCl2 (50 mM Hepes, 150 mM NaCl, 15 mM MgCl2, 1 mM CaCl2, 0.1% Triton X‐100, 1% BSA) overnight at 4°C with rotation. […]
Lysates and immunoprecipitates were separated on 12% or 4%–15% Criterion TGX precast gels (5671044 and 5671084, Biorad, Hercules, CA, USA), blotted onto PVDF membranes (1704157 by Biorad or 03010040001 by Sigma Merck) and reversibly stained with Revert 700 Total Protein Stain (Li‐COR Biosciences, Lincoln, NE, USA). […] Blots were developed using ECL (RPN2236, GE Healthcare, Chicago, IL, USA) after four washing steps of 10 min in TBS‐t and the chemiluminescence signals were detected by Azure Biosystems 600 (Dublin, CA, USA). […] ImageJ [13] was used to quantify the blots.

Another experiment addresses T2, human His‐CaMKIIδ‐T287D (Homo sapiens, UniProt Q13557, T287D).
T2 construct: Recombinant human His‐CaMKIIδ‐T287D and rat His‐CaMKIIδ‐T287D full‐length proteins; His; purchased Genscript Corp (custom made)
In words: ELISA-based binding to human His‐CaMKIIδ‐T287D. Conditions: biotin‐ahx‐SN‐db‐short; values relative to biotin‐ahx‐Scram; Figure S2B, n = 6. As to the method:
A 96‐well microplate was coated with 1 μg/well of rat or human recombinant His‐CaMKIIδ‐T287D or CaMKIIδ fragments (custom made by Genscript) in 1× PBS overnight at 4°C with gentle tilting. Wells were washed with 1× PBS‐t (0.1% Tween‐20) and blocked with 0.5% gelatin (G‐1890 Gelatin type A, Sigma Merck, Darmstadt, Germany) or BSA (805095 30% BSA (Rinderalbumin 30%), Norsk Labex, Høvik, Norway) for 1 h at room temperature (RT), then incubated with 5 μL of biotinylated peptide (1 mM) for 2 h at 37°C with gentle tilting. The wells were then washed five times with 1× PBS‐t. To detect binding, the wells were incubated with a monoclonal anti‐biotin‐HRP conjugated antibody (1:5000 dilution, A‐0185, Sigma) for 30 min at RT. The washing steps were repeated, and the plate was incubated with the Ultra TMB solution (1‐step Ultra TMB‐ELISA Substrate Solution 34028, Thermo Fischer Scientific, Waltham, MA, USA) for 30 min at RT with gentle tilting. The reaction was stopped by adding 2 N HCl (100 μL), and the signal was measured at 450 nm by a plate reader (Hidex Sense Microplate Reader, Åbo, Finland). For the competition assay, 20 μL (1 mM) of T‐site binding peptides AKAP18δ‐N1, CN21 or CN27 (without any biotin tags) were incubated in the same well with 5 μL (1 mM) of SN biotinylated peptides. […]

T2 sequence (Q13557 whole entry T287D): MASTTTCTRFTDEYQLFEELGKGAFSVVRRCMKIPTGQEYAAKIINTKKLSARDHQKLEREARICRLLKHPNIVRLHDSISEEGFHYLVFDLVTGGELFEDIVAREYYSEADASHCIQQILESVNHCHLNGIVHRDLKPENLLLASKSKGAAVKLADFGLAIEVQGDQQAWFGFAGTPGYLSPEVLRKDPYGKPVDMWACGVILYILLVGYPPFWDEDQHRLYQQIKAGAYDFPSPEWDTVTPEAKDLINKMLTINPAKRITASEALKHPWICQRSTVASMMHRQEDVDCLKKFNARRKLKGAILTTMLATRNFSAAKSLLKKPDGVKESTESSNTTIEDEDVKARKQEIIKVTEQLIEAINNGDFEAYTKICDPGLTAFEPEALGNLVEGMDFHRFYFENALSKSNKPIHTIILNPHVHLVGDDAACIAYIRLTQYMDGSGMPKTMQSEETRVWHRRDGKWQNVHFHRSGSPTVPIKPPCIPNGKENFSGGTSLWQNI

Turning to `CC(C)C[C@H](NC(=O)[C@H](CCC(=O)O)NC(=O)[C@H](CCC(N)=O)NC(=O)[C@H](Cc1ccccc1)NC(=O)[C@H](Cc1ccccc1)NC(=O)[C@H](CO)NC(=O)[C@H](CCC(=O)O)NC(=O)[C@H](Cc1ccccc1)NC(=O)[C@@H](NC(=O)[C@H](C)NC(=O)[C@H](CC(C)C)NC(=O)[C@H](CO)NC(=O)[C@H](CCC(N)=O)NC(=O)[C@@H]1CCCN1C(=O)[C@@H](NC(=O)[C@H](Cc1ccc(O)cc1)NC(=O)[C@H](CCC(N)=O)NC(=O)[C@H](CCC(=O)O)NC(=O)CCCCCNC(=O)CCCC[C@@H]1SC[C@@H]2NC(=O)N[C@@H]21)[C@@H](C)O)[C@@H](C)O)C(=O)NCC(=O)N[C@@H](CCCCN)C(=O)O` [SN‐db‐short] ({Biotin-Ahx}-EQYTPQSLATFESFFQELGK-OH; N-terminus and C-terminus assumed), the “Binding to CaMKIIδ fragments” value in experiment [1] was “binding was detected for all fragments”. For the same compound, at recombinant CaM, the “CaM binding (pull-down)” value is listed as “no CaM was detected”. At human His‐CaMKIIδ‐T287D, the “Binding to recombinant human CaMKIIδ‐T287D (ELISA)” value was “increased binding”.
